Measured values taken from patent US4771057A, “Reduced pyridyl derivatives with cardiovascular regulating properties” (University of Alberta, priority 1986, dated 1988).
Like-named read-outs stand apart in the source and are kept apart here.

Target: guinea pig ileal longitudinal smooth muscle
Assay: Calcium channel antagonist testing: inhibition of muscarinic receptor-mediated Ca2+-dependent contraction (response to CD) of guinea pig ileal longitudinal smooth muscle
Format: cell-based
Conditions: for IC50: 50% inhibition of tonic contraction to CD 5×10^-7 M, compound added 10 min before CD, 37° C., pH 7.4, read-out: Calcium channel antagonist act., inhib. act. on contractile response to CD, ID50; for calcium channel antagonist activity, comparison to Nifedipine (TM): conclusion from Table 7
Experimental: Male albino guinea pigs (body weight 300-450 g) were sacrificed by decapitation. The intestine was removed above the ileo-caecal junction. Longitudinal smooth muscle segments of 2 cm length were mounted under a resting tension of 300-400 mg. […] The muscles were equilibrated for 1 h with a solution change every 15 min. Two successive control contractions were elicited at 15 min intervals with 5×10^-7 M cis-2-methyl- 4-dimethylaminomethyl-1,3-dioxolane methiodide (CD). The isometric contractions were recorded with a force displacement transducer (FT 03C) on a GRASS physiograph. The means of the two contractile responses was taken as the 100% value for the tonic (slow) component of the response. The muscle was washed with Hepes saline solution and was allowed to re-equilibrate. The calcium antagonist (test compound) was added ten min before the dose-response for CD was determined. The drug-induced inhibition of contraction was expressed as percent of control. The ID50 values were graphically determined from the concentration-response curves.

Compound | IC50 [µM] | calcium channel antagonist activity, comparison to Nifedipine (TM) | IC50 (Cavia porcellus) [µM]
3-Isobutyl-5-methyl 2,6-dimethyl-4-{3'-[N--methoxycarbonyl-1',2'-(1',6'-)dihydropyridyl]}-1,4-dihydropyridine-3,5-dicarboxylate [Compound D-43] | 0.031 | active calcium channel antagonists, being comparable to Nifedipine (TM) | –
COC(=O)N1C=CC(C2C(C#N)=C(C)NC(C)=C2C#N)=CC1 [Compound D-59, 3,5-Dicyano-2,6-dimethyl-4-[4'-(N--methoxycarbonyl)]-1,4-dihydropyridine] | – | – | 67.5
Diisobutyl 2,6-dimethyl-4-{3'-[N--phenoxycarbonyl-1',2'-(1',6'-)dihydropyridyl]}-1,4-dihydropyridine-3,5-dicarboxylate [Compound D-39] | 6.46 | – | –
COC(=O)C1=C(C)NC(C)=C(C(=O)OCC(C)C)C1c1ccncc1 [Compound D-11, 3-Isobutyl-5-methyl 2,6-dimethyl-4-(4'-pyridyl)-1,4-dihydropyridine-3,5-dicarboxylate] | – | active calcium channel antagonists, being comparable to Nifedipine (TM) | 0.22
COC(=O)C1=C(C)NC(C)=C(C(=O)OC(C)C)C1c1ccccn1 [Compound D-2, 3-Isopropyl-5-methyl 2,6-dimethyl-4-(2'-pyridyl)-1,4-dihydropyridine-3,5-dicarboxylate] | – | active calcium channel antagonists, being comparable to Nifedipine (TM) | 0.0956
Diethyl 2,6-dimethyl-4-{3'-[N--phenoxycarbonyl-1',2'-(1',6'-)dihydropyridyl]}-1,4-dihydropyridine-3,5-dicarboxylate [Compound D-37] | 0.865 | active calcium channel antagonists, being comparable to Nifedipine (TM) | –
COC(=O)C1=C(C)NC(C)=C(C(=O)OCC(C)C)C1C1=CCN(C(=O)Oc2ccccc2)C=C1 [Compound D-61, 3-Isobutyl-5-methyl 2,6-dimethyl-4-[4'-(N--phenoxycarbonyl)]-1,4-dihydropyridine-3,5-dicarboxylate] | – | – | 81
CC1=C(C(=O)OCC(C)C)C(C2=CCN(C(=O)Oc3ccccc3)C=C2)C(C(=O)OCC(C)C)=C(C)N1 [Compound D-56, Diisobutyl 2,6-dimethyl-4-[4'-(N--phenoxycarbonyl)]-1,4-di-hydropyridine-3,5-dicarboxylate] | – | active calcium channel antagonists, being comparable to Nifedipine (TM) | 0.51
3,5-Dicyano-2,6-dimethyl-4-{3'-[N--methoxycarbonyl-1',2'-(1',6'-)dihydropyridyl]}-1,4-dihydropyridine [Compound D-48] | 34 | – | –
Diethyl 2,6-dimethyl-4-{3'-[N--t-butoxycarbonyl-1',2'-(1',6'-)dihydropyridyl]}-1,4-dihydropyridine-3,5-dicarboxylate [Compound D-40] | 0.672 | active calcium channel antagonists, being comparable to Nifedipine (TM) | –
COC(=O)C1=C(C)NC(C)=C(C(=O)OCC(C)C)C1C1=CCN(C(=O)OC)C=C1 [Compound D-60, 3-Isobutyl-5-methyl 2,6-dimethyl-4-[4'-(N--methoxycarbonyl)]-1,4-dihydropyridine-3,5-dicarboxylate] | – | – | 1.76
COC(=O)C1=C(C)NC(C)=C(C(=O)OC)C1c1ccccn1 [Compound D-1, 3,5-dimethyl 2,6-dimethyl-4-(2'-pyridyl)-1,4-dihydropyridine-3,5-dicarboxylate] | – | – | 2.32
3-Methyl 5-cyano-2,6-dimethyl-4-{3'-[N--methoxycarbonyl-1',2'-(1',6'-)dihydropyridyl]}-1,4-dihydropyridine-3-carboxylate [Compound D-46] | 52 | – | –
COC(=O)C1=C(c2ccccc2[N+](=O)[O-])C(C(=O)OC(C)C)=C(C)N(C)C1C (stereo not shown) [Compound W-2, 3-Methyl-5-isopropyl 1,2,6-trimethyl-4-(2-nitrophenyl)-1,2-dihydropyridine-3,5-dicarboxylate] | – | – | 20
CCOC(=O)C1=C(C)NC(C)=C(C(=O)OCC)C1C1CC=CCN1C [Compound D-65, Diethyl 2,6-dimethyl-4-[2'-(N--methyl-1',2',3',6'-tetrahydropyridyl)]-1,4-dihydropyridine-3,5-dicarboxylate] | – | – | 13
COC(=O)C1=C(C)NC(C)=C(C(=O)OCCN(C)C)C1c1ccccn1 [Compound D-4, 3-[2-(N,N--dimethylamino)ethyl]-5-methyl 2,6-dimethyl-4-(2'-pyridyl)-1,4-dihydropyridine-3,5-dicarboxylate] | – | – | 43.6
CC1=C(C(=O)OCCN(C)C)C(c2cccnc2)C(C(=O)OCCN(C)C)=C(C)N1 [Compound D-20, 3,5-Bis-[2-(N,N--dimethylamino)ethyl]2,6-dimethyl-4-(3'pyridyl)-1,4-dihydropyridine-3,5-dicarboxylate] | – | – | 179
Diisopropyl 2,6-dimethyl-4-{3'-[N--methoxycarbonyl-1',2'-(1',6'-)dihydropyridyl]}-1,4-dihydropyridine-3,5-dicarboxylate [Compound D-34] | 0.131 | active calcium channel antagonists, being comparable to Nifedipine (TM) | –
Diethyl 2,6-dimethyl-4-{3'-[N--methoxycarbonyl-1',2'-(1',6'-)dihydropyridyl]}-1,4-dihydropyridine-3,5-dicarboxylate [Compound D-33] | 0.18 | active calcium channel antagonists, being comparable to Nifedipine (TM) | –
CC1=C(C#N)C(c2cccnc2)C(C#N)=C(C)N1 [Compound D-27, 3,5-dicyano-2,6-dimethyl-4-(3'-pyridyl)-1,4-dihydropyridine] | – | – | 357
CCOC(=O)C1=C(C)NC(C)=C(C(=O)OCC)C1c1ccccn1 [Compound D-13, 3,5-diethyl 2,6-dimethyl-4-(2'-pyridyl)-1,4-dihydropyridine-3,5-dicarboxylate] | – | – | 0.18
CC1=C(C(=O)OCC(C)C)C(c2ccccn2)C(C(=O)OCC(C)C)=C(C)N1 [Compound D-15, 3,5-Diisobutyl 2,6-dimethyl-4-(2'-pyridyl)-1,4-dihydropyridine-3,5-dicarboxylate] | – | active calcium channel antagonists, being comparable to Nifedipine (TM) | 0.0936
